A value given as a limit tells only on which side of the number the result lay.

Consider 39 compounds from patent US20260364057A1, “AMIDE COMPOUND, AND COMPOSITION AND USE THEREOF” (SIMCERE ZAIMING PHARMACEUTICAL CO., LTD., priority 2022, published 2026).

For this assay, the target named is T1, Human KIF18A (1-376aa) (Homo sapiens, UniProt Q8NI77).
T1 construct: Human KIF18A (1-376aa) protease used in the experiments; purchased Shanghai Panchao Biotechnology Co., Ltd
T1 sequence (Q8NI77 1-376): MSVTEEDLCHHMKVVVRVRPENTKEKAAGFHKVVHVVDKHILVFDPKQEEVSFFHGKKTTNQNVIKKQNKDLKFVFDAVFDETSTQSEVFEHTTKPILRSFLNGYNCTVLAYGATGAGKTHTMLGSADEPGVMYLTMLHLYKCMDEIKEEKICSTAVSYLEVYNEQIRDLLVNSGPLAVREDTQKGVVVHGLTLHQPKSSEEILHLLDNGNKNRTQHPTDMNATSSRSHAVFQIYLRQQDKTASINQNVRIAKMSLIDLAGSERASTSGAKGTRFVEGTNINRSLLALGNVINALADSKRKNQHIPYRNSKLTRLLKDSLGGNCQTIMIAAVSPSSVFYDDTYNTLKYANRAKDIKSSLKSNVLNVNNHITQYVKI
Description: KIF18A enzyme activity assay (ADP-Glo). Conditions: microtubule 50 μg/mL, ATP (Km 70 μM), room temperature, 15 min, read-out: KIF18A inhibitory activity IC50. It is filed as biochemical. The procedure: Test Example 1: KIF18A Enzyme Activity Assay
Based on the ADP-Glo™ Kinase Assay, the ADP amount generated in the reaction was detected to reflect the enzyme activity of KIF18A.
Human KIF18A (1-376aa) […] used in the experiments, expressed by Shanghai Panchao Biotechnology Co., Ltd., was stored at −80 °C (no more than 5 freeze-thaw cycles).
The assay kit (ADP-Glo™ Kinase Assay) was purchased from Promega (Cat. No. V9101) and stored at −30 °C. The kit detects the enzyme activity by measuring ADP generated in enzyme reaction. The KIF18A enzyme and ATP generate ADP. The remaining ATP in this reaction is consumed by the ADP-Glo reagent, while the ADP generated by the KIF18A enzyme reaction is converted back to ATP by the assay reagent. The ATP then reacts with luciferin in the presence of Ultra-Glo™ luciferase, producing luminescence. The luminescent signal is positively correlated with the activity of the KIF18A enzyme.
Compounds were each subjected to 3-fold serial dilution starting from 10 μM to obtain 10 concentration points. The compounds and pure DMSO (control) were pipetted into wells of a 384-well plate using an Echo instrument, and the total volume of compound and DMSO was 100 nL; sample concentrations of gradient dilution were obtained by the instrument based on different ratios. Preparation of a KIF18A enzyme reaction buffer: […], 10 mM MgCl2, 0.01% Pluronic F-68, 1 μM Taxol, and 50 μg/mL Microtubule. KIF18A and the enzyme reaction buffer were mixed, and then the mixed solution was added to the 384-well plate and incubated at room temperature for 15 min. ATP (Km 70 μM) was then added to the mixed solution, and the mixed solution was incubated at room temperature for 15 min. 10 μL of ADP-Glo™ Reagent was well mixed with 10 μL of the mixed solution, and the mixture was incubated at room temperature for 40 min. Finally, 20 μL of ADP-Glo™ Detection Reagent was added, and the mixture was incubated at room temperature for 30 min. The chemiluminescent signal in each well was measured using an Envision plate reader (PerkinElmer, emission wavelength: 400-700 nm). In the experiment, 1 column of wells with no compound and no enzyme (chemiluminescence value was taken as [RLU]background) and 1 column of wells with enzyme but no compound (chemiluminescence value was taken as [RLU]enzyme) were provided. The chemiluminescence value of the compound adding group was taken as [RLU]cpd. The inhibition rate of the compound on […] was calculated according to the following equation: inhibition rate (%)=([RLU]enzyme−[RLU]cpd)/([RLU]enzyme−[RLU]background)×100%, and the inhibitory activity IC50 value of the compound on the enzyme activity was calculated using a four-parameter Logistic Model method. In the following equation, x represents the logarithmic form of the concentration of compound, and f (x) represents an effect value (inhibition rate of enzyme activity at the concentration): F(x)=(A+((B−A)/(1+((C/x)^D)))). A. B, C, and D are four parameters.
In general, IC50 refers to the point on the concentration scale where inhibition reaches its midpoint. Turning to `COC1Cc2nc3c(NC(=O)c4ccc(NS(=O)(=O)CCO)cc4N4CCC5(CC4)CC5)cccc3n2C1` (stereo not drawn) [Compound 62], the IC50 was less than 200 nM.
As for `O=C(Nc1cccc2c1nc1n2CCC12CC2)c1ccc(NS(=O)(=O)CCO)cc1N1CCC2(CC1)CC2` [Compound 85], the figure is less than 500 nM; as for `Cc1ccnc2c(NC(=O)c3ccc(NS(=O)(=O)CCO)cc3N3CCC4(CC3)CC4)ccnc12` [Compound 7], less than 200 nM; as for `CC(C)n1ccc2c(NC(=O)c3ccc(NS(=O)(=O)CCO)cc3N3CCC4(CC3)CC4)ccnc21` [Compound 6], less than 200 nM.
As for `C=Cc1cc2c(NC(=O)c3ccc(NS(=O)(=O)CCO)cc3N3CCC4(CC3)CC4)ccnc2n1C` [Compound 27], the figure is less than 200 nM; as for `O=C(Nc1cn(C2CC2)c(=O)c(N2CCC(F)(F)CC2)n1)c1ccc(NS(=O)(=O)CCO)cc1N1CCC2(CC1)CC2` [Compound 93], less than 200 nM.
The result for `Cc1nc2c(NC(=O)c3ccc(NS(=O)(=O)CCO)cc3N3CCC4(CC3)CC4)cccn2n1` [Compound 3] reads less than 200 nM; that for `O=C(Nc1ccc(F)c2c1nc1n2CCCC1)c1ccc(NS(=O)(=O)CCO)cc1N1CCC2(CC1)CC2` [Compound 33], less than 200 nM.
Turning to `Cc1cc(NC(=O)c2ccc(NS(=O)(=O)CCO)cc2N2CCC3(CC2)CC3)c2nc3n(c2n1)CCCCC3` [Compound 79], the IC50 is less than 200 nM.
`O=C(Nc1cccc2c1nc1n2C2CC2C1)c1ccc(NS(=O)(=O)CCO)cc1N1CCC2(CC1)CC2` (stereo not drawn) [Compound 90]: the 50% inhibitory concentration (IC50) is less than 200 nM.
Regarding `O=C(Nc1ccc2cc3n(c2n1)CCCC3)c1ccc(NS(=O)(=O)CCO)cc1N1CCC2(CC1)CC2` [Compound 26], the IC50 is less than 200 nM.
Take `CN1CCn2c(nc3c(NC(=O)c4ccc(NS(=O)(=O)CCO)cc4N4CCC5(CC4)CC5)cccc32)C1` [Compound 89]: the IC50 is less than 500 nM.
As for `Cc1cc(NC(=O)c2ccc(NS(=O)(=O)CCO)cc2N2CCC3(CC2)CC3)c2nc3c(n2c1)CCCC3` [Compound 18], the figure is less than 200 nM.
On to `O=C(Nc1cccc2c1oc1ccccc12)c1ccc(NS(=O)(=O)CCO)cc1N1CCC2(CC1)CC2` [Compound 8], for which the IC50 is less than 200 nM.
Consider `O=C(Nc1ccnc2c1nc1n2CCCC1)c1ccc(NS(=O)(=O)CCO)cc1N1CCC2(CC1)CC2` [Compound 36], for which the concentration for half-maximal inhibition (IC50) is less than 200 nM.
As for `O=C(Nc1cccc2c1nc1n2CCC1)c1ccc(NS(=O)(=O)CCO)cc1N1CCC2(CC1)CC2` [Compound 23], the IC50 is less than 200 nM.
The result for `O=C(Nc1cccc2c1nc1n2CC2(CC2)C1)c1ccc(NS(=O)(=O)CCO)cc1N1CCC2(CC1)CC2` [Compound 84] reads less than 500 nM; that for `O=C(Nc1cc2c(c(N3CCC(F)(F)CC3)n1)CCC2)c1ccc(NS(=O)(=O)CCO)cc1N1CCC2(CC1)CC2` [Compound 66], less than 500 nM.
As to `Cn1ccc2ccc(NC(=O)c3ccc(NS(=O)(=O)CCO)cc3N3CCC4(CC3)CC4)nc21` [Compound 15], the IC50 was less than 200 nM.
In the case of `O=C(Nc1cncc2c1nc1n2CCCC1)c1ccc(NS(=O)(=O)CCO)cc1N1CCC2(CC1)CC2` [Compound 43], the IC50 was less than 500 nM.
As to `Cc1cnc2c(NC(=O)c3ccc(NS(=O)(=O)CCO)cc3N3CCC4(CC3)CC4)snc2c1` [Compound 32], the IC50 is less than 200 nM.
As for `COC1CCn2c1nc1c(NC(=O)c3ccc(NS(=O)(=O)CCO)cc3N3CCC4(CC3)CC4)cccc12` (stereo not drawn) [Compound 63], the figure is less than 200 nM; as for `O=C(Nc1cccc2c1nc1n2CCC2(CC2)C1)c1ccc(NS(=O)(=O)CCO)cc1N1CCC2(CC1)CC2` [Compound 91], less than 200 nM; as for `O=C(Nc1ccnc2c1ccn2CCC(F)(F)F)c1ccc(NS(=O)(=O)CCO)cc1N1CCC2(CC1)CC2` [Compound 5], less than 200 nM.
For `O=C(Nc1snc2cc3c(nc12)CCCC3)c1ccc(NS(=O)(=O)CCO)cc1N1CCC2(CC1)CC2` [Compound 52], the IC50 is less than 200 nM.
With `O=C(Nc1ccc(=O)n(C2=CCC(F)(F)CC2)n1)c1ccc(NS(=O)(=O)CCO)cc1N1CCC2(CC1)CC2` [Compound 75], the IC50 is less than 200 nM.
As to `CC1(C)C2Cn3c(nc4c(NC(=O)c5ccc(NS(=O)(=O)CCO)cc5N5CCC6(CC5)CC6)cccc43)C21` (stereo not drawn) [Compound 95], the IC50 was less than 200 nM.
Consider `CN1CCc2ccc(NC(=O)c3ccc(NS(=O)(=O)CCO)cc3N3CCC4(CC3)CC4)nc21` [Compound 16], for which the IC50 is less than 200 nM.
Take `Cn1c(N2CCC(F)(F)CC2)nc(NC(=O)c2ccc(NS(=O)(=O)CCO)cc2N2CCC3(CC2)CC3)cc1=O` [Compound 2]: the IC50 was less than 200 nM.
With `CC(C)c1cnc2c(NC(=O)c3ccc(NS(=O)(=O)CCO)cc3N3CCC4(CC3)CC4)snc2c1` [Compound 57], the IC50 is less than 200 nM.
The result for `CN1CCOc2ccc(NC(=O)c3ccc(NS(=O)(=O)CCO)cc3N3CCC4(CC3)CC4)nc21` [Compound 19] reads less than 200 nM; that for `O=C(Nc1cc2nccn2c(N2CCC3(CC2)CC3)n1)c1ccc(NS(=O)(=O)CCO)cc1N1CCC2(CC1)CC2` [Compound 20], less than 200 nM; that for `O=C(Nc1cccc2c1nc1n2CC(F)(F)CC1)c1ccc(NS(=O)(=O)CCO)cc1N1CCC2(CC1)CC2` [Compound 25], less than 200 nM.
Regarding `O=C(Nc1ccnc2c1OCC1CCCCN21)c1ccc(NS(=O)(=O)CCO)cc1N1CCC2(CC1)CC2` (stereo not drawn) [Compound 10], the IC50 is less than 200 nM.
For the compound `O=C(Nc1cccc2c1nc1n2C2CC2CC1)c1ccc(NS(=O)(=O)CCO)cc1N1CCC2(CC1)CC2` (stereo not drawn) [Compound 69], the IC50 is less than 200 nM.
The result for `O=C(Nc1cccc2c1ccn2C1CCC1)c1ccc(NS(=O)(=O)CCO)cc1N1CCC2(CC1)CC2` [Compound 4] reads less than 200 nM.
On to `O=C(Nc1cc2nccn2c(OCCC(F)(F)F)n1)c1ccc(NS(=O)(=O)CCO)cc1N1CCC2(CC1)CC2` [Compound 13], for which the IC50 is less than 200 nM.
As for `Cc1nc2c(NC(=O)c3ccc(NS(=O)(=O)CCO)cc3N3CCC4(CC3)CC4)cccn2c1C` [Compound 9], the figure is less than 200 nM; as for `O=C(Nc1cccc2c1nc1n2C2CC(C1)C2)c1ccc(NS(=O)(=O)CCO)cc1N1CCC2(CC1)CC2` [Compound 46], less than 200 nM.
